Here are results for 85 molecules from ChEMBL document CHEMBL1157539, “Thousands of chemical starting points for antimalarial lead identification” (Nature, 2010).

For this experiment, the system named is Plasmodium falciparum. Briefly: GSK_TCMDC: Inhibition of Plasmodium falciparum 3D7 in whole erythrocytes, using parasite LDH activity as an index of growth. It is filed as functional, organism-based. Particulars: Plasmodium falciparum, 3D7.
Regarding `COc1ccc2nccc(N/N=C/c3ccc([N+](=O)[O-])cc3)c2c1`, the XC50 came out at 712 nM.
In the case of `CN1CCC(N2CCN(c3ccc4c(=O)nc(CCc5cccc(F)c5F)n(CC(=O)N(C)Cc5ccc(-c6ccc(C(F)(F)F)cc6)cc5)c4n3)CC2)CC1`, the XC50 amounted to 717 nM.
Take `CCN(CC)CCN(Cc1ccc(-c2ccc(C(F)(F)F)cc2)cc1)C(=O)Cn1c(SCc2ccc(F)c(F)c2F)nc(=O)c2c1CCC2`: the XC50 was determined as 1020 nM.
As to `Oc1cc(NCc2ccccc2NCc2ccc(Cl)c(Cl)c2)nc2ccccc12`, the XC50 stood at 842 nM.
Molecule `CCN(CC)c1ccc(C(=O)Cn2ccc(=N)cc2)cc1` showed an XC50 of 998 nM.
The molecule `Oc1ccc(CCNc2nc(NCCCOc3ccccc3-c3ccc(F)cc3)nc(N3CCNCC3)n2)cc1` showed an XC50 of 1080 nM.
In turn, `O=C(Nc1ccccc1)N(Cc1cccc(-c2cccc(CNCc3ccc4c(c3)OCO4)c2)c1)C1CCN(Cc2ccccc2)CC1` yielded an XC50 of 281 nM.
`O=C(N[C@H]1CCN(Cc2ccc(OCCCN3CCCCC3)cc2)C1)c1ccc2ccccc2c1` came in with an XC50 of 764 nM.
`Cc1cc(-c2nc3cc(C(=N)N)ccc3[nH]2)c(C)cc1-c1nc2cc(C(=N)N)ccc2[nH]1` showed an XC50 of 397 nM.
Take `O=c1sn(-c2csc3ccccc23)c2ccccc12`: the XC50 is 339 nM.
The molecule `COCCNCC(O)Cn1c2ccc(Cl)cc2c2cc(Cl)ccc21` (stereo not given) registered an XC50 of 52 nM.
In the case of `Cc1cccc2nc(-c3ccc(-c4cccc(CN5CCN(c6ccncc6)CC5)c4)cc3)[nH]c12`, the XC50 was 117 nM.
In the case of `CC(C)(C)c1nn(-c2ccccc2)c2[nH]c(=O)c(CNCc3ccc4c(c3)OCO4)cc12`, the XC50 amounted to 1050 nM.
Turning to `N=C(N)c1cc(Cl)cc(NC(=O)Nc2cc(Cl)cc(C(=N)N)c2)c1`, the XC50 was 719 nM.
`COCCN(C)CCCOc1cc2c(cc1OC)ncn2-c1cc(OCc2ccccc2C(F)(F)F)c(C(N)=O)s1` showed an XC50 of 710 nM.
`CCCc1ccc(-c2csc(NC(=O)c3ccc([N+](=O)[O-])o3)n2)cc1` had an XC50 of 1210 nM.
As for `CN(C)CCOc1ccc(-c2cc(-c3ccc(Cl)c(O)c3)c(-c3ccncc3)o2)cc1`, the XC50 stood at 1450 nM.
In turn, `Cn1cncc1-c1cc2c(Nc3ccc(OCc4ccccc4)cc3)ncnc2cn1` registered an XC50 of 268 nM.
Molecule `CC(c1cccc(Nc2nccc(-c3c(-c4cccc(NC(=O)c5c(F)cccc5F)c4)nn4ccccc34)n2)c1)S(C)(=O)=O` (stereo not given) showed an XC50 of 57.5 nM.
For `COc1ccc2nccc([C@@H](O)CN3CCC(NCc4cc5c(Cl)cc(Cl)cc5[nH]4)CC3)c2c1` the value was 58.5 nM; for `COc1ccc(NC(=O)/C=C/c2ccccc2Cl)cc1OCCN1CCC(N2CCN(C)CC2)CC1`, 487 nM; for `COc1cc2c(cc1S(=O)(=O)c1ccc(NC(=O)c3cccc(C(F)(F)F)c3)cc1)CCN(C)CC2`, 1380 nM.
Turning to `COc1ccc2nc3cc(Cl)ccc3c(NCCc3ccccc3)c2c1`, the XC50 amounted to 950 nM.
Molecule `O=c1[nH]nc(-c2ccc(N3CCCC3)c([N+](=O)[O-])c2)c2ccccc12` came in with an XC50 of 631 nM.
In turn, `CCN1CCN(CCCNc2c3ccccc3nc3ccccc23)CC1` had an XC50 of 798 nM.
The molecule `Cc1cc(N)c2cc(NC(=O)/C=C/c3ccc([N+](=O)[O-])cc3)ccc2n1` displayed an XC50 of 669 nM.
On to `Cc1cccc(C(=O)Nc2ccnc(N3CCC(N(C)Cc4ccccc4)CC3)c2)c1`, for which the XC50 is 962 nM.
On to `CC(C)(C)c1ccc(/C=C/C(=O)NCCCCCN2CCC(c3c[nH]c4ccccc34)CC2)cc1`, for which the XC50 turned out to be 1090 nM.
Molecule `COc1ccc(CNC2Cc3ccccc3C2)cc1-c1cccc(S(=O)(=O)NCCN2CCCC2)c1` displayed an XC50 of 760 nM.
To `Cc1cccc2nc(-c3ccc(-c4ccc(CNCCNC(=O)c5ccnn5C)cc4)s3)[nH]c12` belongs 308 nM.
Turning to `CC(C)COc1ccc(Cl)cc1Cc1nc(-c2nc3ccc(CN(C)C)cc3[nH]2)co1`, the XC50 amounted to 711 nM.
For the molecule `CCOC(=O)c1ccc(NC(=O)Nc2ccc(-c3cccc(-c4nc5cc(F)ccc5[nH]4)c3)cc2)cc1`, the XC50 came to 122 nM.
For `CCCCCN1CCCN(Cc2cccc(NC(=O)c3cc4ccccc4s3)c2)CC1` the value was 594 nM; for `COc1ccc(-c2cc(C(=O)N[C@@H](CC3CCCCC3)C(=O)NCCN3CCCCC3)ccc2O)cc1`, 950 nM; for `CC1CN(c2cnn(Cc3ccc(NC(=O)Nc4ccc(-c5ccccc5)cc4)cc3)c(=O)c2Cl)CC(C)N1` (stereo not given), 367 nM.
For `O=C(Nc1ccc(CN2CCN(S(=O)(=O)c3cccc(Cl)c3)CC2)cc1)c1cccs1` the value was 1080 nM; for `CN1CCN(CCCN(Cc2ccc(-c3ccc(CNCc4ccc5c(c4)OCO5)cc3)cc2)C(=O)CCC2CCCC2)CC1`, 952 nM; for `Nc1nc(N)c2cc(N(Cc3ccccc3)Cc3ccccc3)ccc2n1`, 612 nM.
To `COc1ccc(NC(=O)c2cccc(Br)c2)cc1N1CCN(CCCCCCCN2CCN(c3cc(NC(=O)c4cccc(Br)c4)ccc3OC)CC2)CC1` belongs 184 nM; to `CCOc1cc(C(=O)Nc2ccc3nc(N4CCN(C)CC4)cc(C)c3c2)cc(OCC)c1OCC`, 847 nM.
`Cc1cc(Nc2ccc(Oc3ccc(Cl)cc3)cc2)nc(N)n1` yielded an XC50 of 616 nM.
In turn, `COc1ccc(CNC(=O)c2cnc3c(O)cccc3c2Nc2cccc(NC(=O)c3ccc(Cl)c([N+](=O)[O-])c3)c2)cc1` returned an XC50 of 945 nM.
Molecule `CCCCNCc1ccc(-c2nc(CN(Cc3ccc(Cl)c(Cl)c3)S(=O)(=O)c3ccc(NC(C)=O)cc3)cs2)cc1` gave an XC50 of 1030 nM.
As to `CCN(CC)CCCSc1ccc(-c2ccc(SCCCN(CC)CC)cc2)cc1`, the XC50 came to 1160 nM.
To `CN(C)c1ccc(C=Cc2nc(=O)c3ccccc3o2)cc1` belongs 44.6 nM; to `CC(C)c1sc(N2CCN(C)CC2)nc1C(=O)Nc1cccc2c1CCCC2`, 1280 nM; to `Cc1cc(N[C@@H](Cc2ccccc2)C(=O)NCc2cccc(F)c2)nc(NCCOc2ccccc2)n1`, 786 nM.
For `CC(C)CNCc1cccc(-c2ccc(CN(CCCN3CCN(C)CC3)C(=O)CCC3CCCC3)cc2)c1` the value was 877 nM.
As to `CC(=O)N1N=C(c2ccc(F)cc2)Sc2c1nc(-c1ccccc1)n2C(C)=O`, the XC50 was found to be 651 nM.
Regarding `COc1ccc(NC(=O)[C@H](Cc2ccccc2)Nc2cc(C)nc(NCC3CCCCC3)n2)cc1`, the XC50 worked out at 678 nM.
As for `c1ccc2[nH]c(-c3ccc(-c4ccc(CNCCc5ccncc5)cc4)s3)nc2c1`, the XC50 turned out to be 158 nM.
`CC(=O)c1nccc(C)c1N` returned an XC50 of 929 nM.
In the case of `Cc1cccc(OCC(=O)Nc2cccc(NC(=O)COc3cccc(C)c3)n2)c1`, the XC50 turned out to be 671 nM.
For `CC(Cc1ccc([N+](=O)[O-])cc1)NCC(O)c1cccc(C(F)(F)F)c1` (stereo not given), the XC50 came out at 898 nM.
With `COc1cc2c(cc1OCCN1CCC(N3CCCCC3)CC1)N(C(=O)/C=C/c1ccccc1Cl)CC2`, the XC50 was determined as 280 nM.
For `CN(C)CCC(O)(c1ccc(Br)cc1)c1cccnc1` (stereo not given) the value was 831 nM; for `Cc1cc(N[C@@H](Cc2ccccc2)C(=O)NCCc2ccccc2)nc(NCCc2ccccc2)n1`, 850 nM.
As for `Nc1cccc(CNCc2ccc(-c3ccc(-c4nc5ccccc5[nH]4)s3)cc2)c1`, the XC50 came out at 574 nM.
In the case of `Cc1cccc2nc(-c3ccc(-c4cccc(NC(=O)c5cncn5C)c4)cc3)[nH]c12`, the XC50 stood at 861 nM.
For the molecule `Cc1cc(NC2CCN(CC3CCCCC3)C2)nc(Nc2ccc(Br)cc2)n1` (stereo not given), the XC50 amounted to 566 nM.
To `Cc1cc(NCCC(=O)Nc2ccccc2)nc(NCC2CCCCC2)n1` belongs 841 nM; to `CCC(C)OC(=O)C1=C(C)NC2=C(C(=O)CC(c3ccc(OC)c(OC)c3)C2)C1c1ccc(C)o1` (stereo not given), 899 nM; to `CC(=O)Nc1ccc2[nH]cc(C3CCN(CC4CCN(C(=O)/C=C/c5ccc(Cl)c(Cl)c5)CC4)CC3)c2c1`, 723 nM.
On to `Oc1ccc(CCNCc2ccc(OCc3ccccc3)c(OCc3ccccc3)c2)cc1`, for which the XC50 is 1510 nM.
Consider `Cc1cc(-c2cnc(N)c(-c3ccc(N4CCN(C)CC4)cc3)c2)cc(C)c1O`, for which the XC50 was 1170 nM.
To `CCOc1cc(NC(=O)Nc2ccnc3ccccc23)cc(OC)c1` belongs 866 nM; to `O=C(/C=C/c1ccc(Cl)cc1Cl)NC1CCC(CN2CCC(c3c[nH]c4ccccc34)CC2)CC1` (stereo not given), 798 nM.
The molecule `COc1ccc(-c2cccc(CNC3CCN(CC4Cn5c(=O)ccc6ccc(F)c4c65)CC3)c2)cc1` (stereo not given) displayed an XC50 of 1090 nM.
The molecule `Cc1[nH]c(C)c(-c2ccc(CCc3ccc(F)cc3F)cc2)c(=O)c1Br` returned an XC50 of 5.29 nM.
On to `COc1ccc2ncc(C#N)c(CCN3CCC(NCc4ccc5c(n4)NC(=O)CS5)CC3)c2n1`, for which the XC50 was 836 nM.
For the molecule `O=C(NC1CCCCN(Cc2ccccc2O)C1)c1cc(F)cc(F)c1` (stereo not given), the XC50 is 1170 nM.
For `CN(C)CCCNCc1ccc(-c2ccc(CNCCc3ccccc3)cc2)cc1`, the XC50 was determined as 994 nM.
In turn, `COc1cc2ncnc(Nc3ccc(OCc4ccccc4)c(OCc4ccccc4)c3)c2cc1OC` returned an XC50 of 738 nM.
With `O=C(/C=C/c1ccc(Cl)c(Cl)c1)NCCCCCN1CCCN(C(=S)Nc2ccc(Cl)c(Cl)c2)CC1`, the XC50 worked out at 869 nM.
As to `CC(C)N(Cc1cnc(N)c(C#N)n1)c1ccc(Cl)c(Cl)c1`, the XC50 stood at 844 nM.
Take `COc1cc(Cc2cnc(N)nc2N)cc(OCCNC(=O)OCc2ccccc2)c1OC`: the XC50 was determined as 923 nM.
In the case of `O=C(Nc1cccc(CN2CCCN(Cc3cccc(O)c3)CC2)c1)c1ccc(-c2ccccc2)cc1`, the XC50 came out at 641 nM.
For `CCCCCCn1c(Sc2ccc(C#N)c([N+](=O)[O-])c2)nnc1-c1cccc(Cl)c1` the value was 609 nM; for `CC(=O)N[C@@H]1c2cc(C(C)=O)ccc2OC(C)(C)[C@@H]1O`, 983 nM.
Regarding `CCOC(=O)c1ccc(NC(=O)Nc2ccc(-c3cccc(-c4nc5cccc(C)c5[nH]4)c3)cc2)cc1`, the XC50 worked out at 145 nM.
For `COc1ccc(NC(=O)[C@H](CC(C)C)Nc2cc(C)nc(NCCc3cccs3)n2)cc1` the value was 964 nM; for `CS(=O)(=O)Nc1ccc2[nH]cc(C3CCN(CC4CCC(NC(=O)/C=C/c5ccccc5Cl)CC4)CC3)c2c1` (stereo not given), 793 nM.
`O=C(NCCCCN1CCN(c2cccc3c2OCCO3)CC1)c1ccc(NC(=O)c2cc(Cl)cc(Cl)c2)cc1` had an XC50 of 225 nM.
The molecule `CCCCOc1ccc(/C=C/c2ccc(-c3c(C)[nH]c(C)c(Cl)c3=O)s2)cc1` gave an XC50 of 395 nM.
For `CCOC(=O)c1ccc(NC(=O)Nc2ccc(-c3cccc(-c4nc5ccccc5[nH]4)c3)cc2)cc1`, the XC50 came out at 145 nM.
